EP0490598A1 (priority 1990, dated 1992)
Converted amounts (≈) assume the structure as drawn. Like-named read-outs stand apart in the source and are kept apart here.

Columns and labels:
P-388 cells = assay: Antitumoral assay, P-388 cell growth (cell counting); format: cell-based, mouse; settings: for IC50: Mus musculus
Experimental: (§1) Pateamine was diluted in MeOH/CH₂Cl₂ 1:1 at 100 ng/ml and it has been tested at different concentrations. The solvent was allowed to evaporate before the cells were seeded.
Four general anitumoural assays, employing the current screening protocols have been carried out using the following cells: P-388 (lymphoid neoplasm from DBA/2 mouse) A-549 (human lung carcinoma) HT-29 (human colon carcinoma) KB (human oral epidermoid carcinoma)
P-388 cells were seeded into 16 mm wells at 1 x 10⁴ per well in […] aliquots of MEM 10FCS containing the indicated concentration or drug. All determinations were carried out in duplicate. After three days of incubation cells were counted and the IC₅₀ was determined.

BHK cells = assay: Cytotoxicity assay, BHK cell growth (cell counting); format: cell-based, hamster; settings: Mesocricetus auratus, 72 h, three days of incubation, read-out: IC50 ng/ml approx.
Experimental: as §1
It has been done two kinds of cytotoxicity assays, one of them employing the same screening protocols and another one with the MTT method. In both cases the cells were: CV-1 (monkey kidney fribroblast) BHK (hamster kidney fibroblast)
BHK cells were seeded into 16 mm wells at 2 x 10⁴ per well. The day after the inoculum was replaced by 1 ml aliquots of MEM 10FCS containing the indicated concentration of drug. All determinations were carried out in duplicate. After three days of incubation cells were counted and the IC₅₀ was determined.

[1] = tested on: VSV (vesicular stomatitis virus); format: cell-based; settings: VSV in BHK cells
murine lymphocytes = assay: Mixed Lymphocyte Reaction (MLR) assay; format: cell-based, mice; settings: Mus musculus, two-way MLR, Balb/c and C57B1/6 lymphocytes, 96 hours, 3H-thymidine
Experimental: (§2) Murine lymphocytes were derived by splenectomy, under sterile conditions, from Balb/c and C57B1/6 mice sacrificed by cervical dislocation. Spleens were homogenized in 15 mM RPMI medium […], 87%; fetal calf serum, 10%; L-glutamine (200 mM), 2% and supplemented with 1% antibiotic-antimycotic solution (GIBCO) and 25 µg/ml gentamycin. Red blood cells were lysed by brief exposure to sterile, distilled water and subsequently reconstituted to normal tonicity with PBS (10x). The final cell preparation was enumerated, and the viability evaluated, by means of a hemacytometer using the trypan blue exclusion method.
The MLR is an in vitro test of cellular immunity in which murine lymphocytes from genetically dissimilar animals are cocultured to mutually induce cell proliferation (i.e. two-way MLR method). […] Data from the MLR is generated as dpm of radioactivity which is then expressed as a percentage of cellular activity, relative to control, using the following reduced formula: (Experimental value - (Balb/c - C57B1/6 - Media))/(Positive Control - (Balb/c - C57B1/6 - Media))x 100 [formula] […]
Reconstituted compound at each of several concentrations was added in duplicate (10µl) into wells of a 96-well microtiter plate and evaporated to dryness at room temperature. […] The radioactivity from DNA-bound 3H thymidine was counted using a dry INOTECH counter. Results were calculated as described above.

Balb/c lymphocytes = assay: Lymphocyte Viability (LCV) assay, MTT; format: cell-based, mice; settings: Mus musculus, 96 hours, 50% viability
Experimental: as §2
The LCV is an in vitro cytotoxicity assay for murine lymphocytes designed by the investigator. […] The percent viable cells is determined by the MTT-thiazolyl blue method after a similar incubation in the MLR of lymphocytes with the test sample. […] If there is no significant reduction in cell viability, as determined by this detection method, then damaged cells are probably not present for low data values generated in the MLR. Colorimetric data from the LeV is calculated as a percentage of viability, relative to control, using the following formula: (Experimental value - (Nonspecific Color))/(Positive Control - (Media))x 100 [formula] […]

Q: Which “% Inhibition P-388 cell growth” value (P-388 cells; 0.1ng, three days of incubation) does the source give for `CC(/C=C/C(C)=C/C1Cc2nc(cs2)C(C)CC(N)CC(=O)OC(C)C/C(C)=C/C=C\C(=O)O1)=C\CN(C)C` (centres unmarked) [PATEAMINE, pateamine] here?
A: 11%

Q: What about the “% Inhibition P-388 cell growth” value (P-388 cells; 1ng, three days of incubation) of the same compound?
A: 100%

Q: What about the “% Inhibition P-388 cell growth” value (P-388 cells; 5ng, three days of incubation) of the same compound?
A: 100%

Q: What about the “% Inhibition P-388 cell growth” value (P-388 cells; 10ng, three days of incubation) of the same compound?
A: 100%

Q: And the IC50 (P-388 cells; P388, 72 h, P-388, three days of incubation, read-out: IC50 ng/ml approx.)?
A: ~0.3 ng/mL (≈ 0.54 nM)

Q: What about the IC50 (P-388 cells; P388, read-out: IC50) of the same compound?
A: 0.15 ng/mL (≈ 0.27 nM)

Q: What about the IC50 (BHK cells) of the same compound?
A: ~3 ng/mL (≈ 5.4 nM)

Q: What about the IC50 ng/disk [1] of the same compound?
A: >10 ng/disk

Q: And the “% Inhibition BHK/VSV (sign for plaque reduction)” value ([1]; 10ng)?
A: 14 - (The sign (-), indicates no inhibition of virus replication.)

Q: And the IC50 (murine lymphocytes)?
A: < 1.5 ng/mL

Q: What about the IC50 (Balb/c lymphocytes) of the same compound?
A: 4100 ng/mL (≈ 7380 nM)
